Laboratory results as given in the NIST ThermoML archive (doi:10.1021/je300958c).
Numbers after ± are expanded uncertainties.

Assay: relative permittivity at zero frequency (dimensionless)
Settings: 101.33 kPa, Liquid, impedance/gain phase analyzer

N#CCCCCC#N [hexanedinitrile]
Settings	relative permittivity at zero frequency
278.15 K	34.7 ± 0.1
280.65 K	34.35 ± 0.1
283.15 K	34.01 ± 0.1
285.65 K	33.67 ± 0.1
288.15 K	33.36 ± 0.1
290.65 K	33.04 ± 0.1
293.15 K	32.73 ± 0.1
295.65 K	32.41 ± 0.1
298.15 K	32.12 ± 0.1
300.65 K	31.83 ± 0.1
303.15 K	31.53 ± 0.1
305.65 K	31.26 ± 0.1
308.15 K	30.96 ± 0.1
310.65 K	30.67 ± 0.1
313.15 K	30.38 ± 0.1
315.65 K	30.09 ± 0.1
318.15 K	29.8 ± 0.1
320.65 K	29.5 ± 0.1
323.15 K	29.22 ± 0.1
325.65 K	28.94 ± 0.1
328.15 K	28.69 ± 0.1
330.65 K	28.46 ± 0.1
333.15 K	28.21 ± 0.1
335.65 K	27.98 ± 0.1
338.15 K	27.73 ± 0.1
340.65 K	27.52 ± 0.1
343.15 K	27.3 ± 0.1
345.65 K	27.09 ± 0.1
348.15 K	26.83 ± 0.1
350.65 K	26.6 ± 0.1
353.15 K	26.4 ± 0.1

N#CCCCCCC#N [heptanedinitrile]
Settings	relative permittivity at zero frequency
248.15 K	36.21 ± 0.1
250.65 K	35.82 ± 0.1
253.15 K	35.44 ± 0.1
255.65 K	35.06 ± 0.1
258.15 K	34.7 ± 0.1
260.65 K	34.35 ± 0.1
263.15 K	33.99 ± 0.1
265.65 K	33.65 ± 0.1
268.15 K	33.31 ± 0.1
270.65 K	32.98 ± 0.1
273.15 K	32.66 ± 0.1
275.65 K	32.36 ± 0.1
278.15 K	32.04 ± 0.1
280.65 K	31.73 ± 0.1
283.15 K	31.43 ± 0.1
285.65 K	31.14 ± 0.1
288.15 K	30.86 ± 0.1
290.65 K	30.57 ± 0.1
293.15 K	30.28 ± 0.1
295.65 K	30 ± 0.1
298.15 K	29.71 ± 0.1
300.65 K	29.45 ± 0.1
303.15 K	29.18 ± 0.1
305.65 K	28.92 ± 0.1
308.15 K	28.67 ± 0.1
310.65 K	28.42 ± 0.1
313.15 K	28.17 ± 0.1
315.65 K	27.94 ± 0.1
318.15 K	27.68 ± 0.1
320.65 K	27.46 ± 0.1
323.15 K	27.23 ± 0.1
325.65 K	27 ± 0.1
328.15 K	26.77 ± 0.1
330.65 K	26.56 ± 0.1
333.15 K	26.32 ± 0.1

N#CCCC#N [butanedinitrile]
Settings	relative permittivity at zero frequency
333.15 K	56.09 ± 0.1
335.65 K	55.46 ± 0.1
338.15 K	54.85 ± 0.1
340.65 K	54.29 ± 0.1
343.15 K	53.68 ± 0.1
345.65 K	53.11 ± 0.1
348.15 K	52.52 ± 0.1
350.65 K	51.95 ± 0.1
353.15 K	51.36 ± 0.1
355.65 K	50.81 ± 0.1
358.15 K	50.28 ± 0.1
360.65 K	49.73 ± 0.1
363.15 K	49.18 ± 0.1
365.65 K	48.66 ± 0.1
368.15 K	48.14 ± 0.1
370.65 K	47.63 ± 0.1
373.15 K	47.11 ± 0.1

N#CCCCCCCC#N [octanedinitrile]
Settings	relative permittivity at zero frequency
273.15 K	28.23 ± 0.1
275.65 K	28 ± 0.1
278.15 K	27.77 ± 0.1
280.65 K	27.52 ± 0.1
283.15 K	27.29 ± 0.1
285.65 K	27.06 ± 0.1
288.15 K	26.82 ± 0.1
290.65 K	26.6 ± 0.1
293.15 K	26.36 ± 0.1
295.65 K	26.16 ± 0.1
298.15 K	25.94 ± 0.1
300.65 K	25.75 ± 0.1
303.15 K	25.55 ± 0.1
305.65 K	25.32 ± 0.1
308.15 K	25.11 ± 0.1
310.65 K	24.94 ± 0.1
313.15 K	24.74 ± 0.1
315.65 K	24.55 ± 0.1
318.15 K	24.37 ± 0.1
320.65 K	24.2 ± 0.1
323.15 K	24 ± 0.1
325.65 K	23.8 ± 0.1
328.15 K	23.63 ± 0.1
330.65 K	23.47 ± 0.1
333.15 K	23.3 ± 0.1

N#CCCCC#N [pentanedinitrile]
Settings	relative permittivity at zero frequency
248.15 K	40.78 ± 0.1
250.65 K	40.45 ± 0.1
253.15 K	40.08 ± 0.1
255.65 K	39.78 ± 0.1
258.15 K	39.42 ± 0.1
260.65 K	39.08 ± 0.1
263.15 K	38.74 ± 0.1
265.65 K	38.4 ± 0.1
268.15 K	38.1 ± 0.1
270.65 K	37.78 ± 0.1
273.15 K	37.44 ± 0.1
275.65 K	37.16 ± 0.1
278.15 K	36.83 ± 0.1
280.65 K	36.56 ± 0.1
283.15 K	36.27 ± 0.1
285.65 K	35.97 ± 0.1
288.15 K	35.71 ± 0.1
290.65 K	35.41 ± 0.1
293.15 K	35.14 ± 0.1
295.65 K	34.87 ± 0.1
298.15 K	34.6 ± 0.1
300.65 K	34.33 ± 0.1
303.15 K	34.04 ± 0.1
305.65 K	33.83 ± 0.1
308.15 K	33.59 ± 0.1
310.65 K	33.35 ± 0.1
313.15 K	33.13 ± 0.1
315.65 K	32.87 ± 0.1
318.15 K	32.67 ± 0.1
320.65 K	32.44 ± 0.1
323.15 K	32.21 ± 0.1
